Source: US7507749B2, “Antitumor agents” (priority 2001, dated 2009)

Key:
[1] = tested on: mammary adenocarcinoma-16/C; test: Test F: R-enantiomers of 22b and 22c against early staged mammary adenocarcinoma-16/C; type: in vivo, C3H female mice; details: Cage 11, IV 7.5 mg/kg/inj days 1,5, total 15 mg/kg
Protocol: C3H female mice were obtained from N.C.I. (D.O.B. was […]; D.O.A. was Jan. 27, 2001). The mice weighed an average of 19.2 gm. Mice were implanted SC with mammary adenocarcinoma-16/C passage-170, a fast growing, highly invasive, highly metastatic tumor (D.O.T. was Mar. 8, 2001; Td was 1.2 days).
The R-enantiomers of both Compound 22c and Compound 22b were each suspended in 3% ethanol, 1% POE-80, 0.5% sodium bicarbonate (by volume) to effect solution, P.B.S. was then added and the pH adjusted to 7 with HCl. Adriamycin (ADRIA; lot number 20338c) was suspended in dH2O to effect solution and the pH was adjusted to 6.0. Mice were administered 0.2 ml per IV injection.

[2] = tested on: pancreatic ductal adenocarcinoma-03; type: in vivo; details: Cg 8 in table (Cage 13 in text); IV 7.5 mg/kg/inj days 6,14; total 15 mg/kg
Protocol: BDF1 female mice were obtained from N.C.I., CRL-Ral (D.O.B. was Feb. 26, 2001; D.O.A. was Mar. 10, 2001). The mice weighed an average of 22.5 gm. Mice were implanted SC with pancreatic ductal adenocarcinoma-03 passage 143. (D.O.T. was May 29, 2001; Td was 2.3 days).
The R-enantiomer of compound 22c was suspended in 3% ethanol, 1% POE-80, 0.25% sodium bicarbonate (by volume) to effect solution. dH2O was then added, and the pH adjusted to 7 with HCl. […] The R-enantiomer of compound 22b was suspended in 3% ethanol, 1% POE-80, 0.5% sodium-bicarbonate (by volume) to effect solution. Then, dH2O was added, and the pH adjusted to 7.5 with HCl. […] Adriamycin (source ADRIA; lot 2033BC) was suspended in dH2O to effect solution, and the pH was 6.0.
Treatment began six days following implant, at which time the tumors were palpable size (126 mg median). The duration of treatment was prolonged (18 days) in order to obtain a clear separation in efficacy between the compounds.

[3] = tested on: pancreatic ductal adenocarcinoma 03; details: historic; cited from earlier work
[4] = tested on: B16 melanoma; details: historic, B16 melanoma implanted subcutaneously (SC); cited from earlier work

## COc1ccc2ccc(Oc3ccc(OC(C)C(=O)O)cc3)nc2c1 (stereo not drawn)
other
  melting point: 164 to 166 °C

## COc1cccc2c1C(=O)c1c(O)c3c(c(O)c1C2=O)C[C@@](O)(C(=O)CO)C[C@@H]3O[C@H]1C[C@H](N)[C@H](O)[C@H](C)O1 [Adriamycin, reference compound]
[1]
  % Body Wt Loss at Nadir: 0%
  % T/C mass: 0%
  Day of Nadir: 8 days
  Drug Deaths: 1/5
  Growth Delay: 12.0 days
  Log Kill: 3.6
  Median Tumor Mass on Day 10 (Range): 0 mg
  Median time for tumors to 1000 mg (range): 21.5 (17-27.5) days
  Tumor Free day-155: 0/5
[1]; listed as adriamycin
  % Body Wt Loss at Nadir: no body weight loss
  % T/C mass: 0%
  Activity Rating: ++++ (>2.8)
  Drug Deaths: one delayed drug-death
[2]
  % Body Wt change between day 6 and day 24: −5.4%
  % T/C mass: 17.0%
  Activity Rating: +++ (2.0-2.8)
  CR's: 1/5
  Drug Deaths: 0/5
  Growth Delay: 17.5 days
  Log Kill: 2.3
  Median Tumor Mass on Day 24 (Range): 383 mg
  Median time for tumors to 1,000 mg (range): 34 days
  PR's: 1/5
  Tumor Free day-157: 0/5
[3]
  activity rating (sensitivity of the tumor to standard agents): +++ (2.0-2.8)
[4]
  activity rating (responsiveness of the tumor to standard agents): +or +/−
